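96-well plates; 48 h exposure; 5 concentrations. Endpoints by linear interpolation between flanking doses. Not reached: highest tested concentration assigned. At the GI50, growth is halved. TGI marks complete inhibition of growth.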
Legend:
Assay in all cases: NCI tumour cell line growth inhibition, 48 h
UACC-62 melanoma = system: UACC-62 melanoma
HT29 colon = system: HT29 colon
SN12K1 renal = system: SN12K1 renal
P388/ADR leukemia = system: P388/ADR leukemia
DMS 114 small cell lung = system: DMS 114 small cell lung
HOP-18 NSCLC = system: HOP-18 NSCLC
786-0 renal = system: 786-0 renal
RXF-631 renal = system: RXF-631 renal
LXFL 529 NSCLC = system: LXFL 529 NSCLC
SNB-78 CNS = system: SNB-78 CNS
DU-145 prostate = system: DU-145 prostate
XF 498 CNS = system: XF 498 CNS
MDA-N = system: MDA-N
BT-549 breast = system: BT-549 breast
MDA-MB-435 = system: MDA-MB-435
PC-3 prostate = system: PC-3 prostate
HS 578T breast = system: HS 578T breast
T-47D breast = system: T-47D breast

SMILES | TGI (UACC-62 melanoma) | TGI (HT29 colon) | TGI (DMS 114 small cell lung) | TGI (HOP-18 NSCLC) | TGI (SNB-78 CNS) | TGI (DU-145 prostate) | TGI (XF 498 CNS) | TGI (MDA-N) | TGI (BT-549 breast) | TGI (MDA-MB-435) | TGI (PC-3 prostate) | TGI (T-47D breast) | also measured
O=C(O)C(Cc1cccs1)NC(=O)C(F)(F)F (stereo not drawn) | > 100 µM | > 100 µM | > 100 µM | > 100 µM | – | – | – | – | – | – | – | – | TGI (SN12K1 renal): > 100 µM; TGI (P388/ADR leukemia): > 100 µM
CC(N)Cc1cccc(C(F)(F)F)c1 (stereo not drawn) | > 100 µM | > 100 µM | > 100 µM | > 100 µM | > 100 µM | – | – | – | – | – | – | – | TGI (786-0 renal): > 100 µM; TGI (RXF-631 renal): > 100 µM; TGI (LXFL 529 NSCLC): > 100 µM
COC(=O)c1cccc(NC(=O)Nc2ccc3oc(=O)c4ccccc4c3c2)c1 | – | > 100 µM | – | – | – | > 100 µM | – | – | – | – | – | – | GI50 (DU-145 prostate): > 100 µM; GI50 (HT29 colon): > 100 µM
CN(C)CCOc1cc2c(c3ccccc13)-c1ccccc1C2=O | 2.97 µM | 3.44 µM | 2.65 µM | 8.58 µM | 23 µM | – | 3.28 µM | – | – | – | – | – | TGI (SN12K1 renal): 2.04 µM; TGI (P388/ADR leukemia): 1.95 µM
CCSC(=Nc1ccccc1)SC | > 100 µM | > 100 µM | > 100 µM | > 100 µM | > 100 µM | – | > 100 µM | – | – | – | – | – | TGI (786-0 renal): > 100 µM; TGI (RXF-631 renal): > 100 µM; TGI (LXFL 529 NSCLC): > 100 µM
CCCCOC(=O)CN1C(=O)c2ccccc2C1=O | > 100 µM | > 100 µM | – | – | > 100 µM | – | > 100 µM | – | – | – | – | – | –
C#CCCCC(=C)C[C@H](OCc1ccccc1)[C@H]1OC(=O)[C@@H]1C | > 100 µM | – | – | – | – | – | – | > 100 µM | > 100 µM | > 100 µM | > 100 µM | – | –
O=C(CCl)N1CCCCC1C1(c2cc3ccccc3[nH]2)OCCO1 (stereo not drawn) | 7.87 µM | 17.6 µM | – | – | – | 9.89 µM | – | 8.81 µM | 6.83 µM | 17.8 µM | 8.83 µM | 26 µM | TGI (HS 578T breast): 13.9 µM
COc1cc(CC2CCc3nc(N)nc(N)c3C2)cc(OC)c1OC (stereo not drawn) | > 100 µM | > 100 µM | – | – | – | – | – | – | > 100 µM | > 100 µM | > 100 µM | > 100 µM | TGI (HS 578T breast): > 100 µM
CO/C(=N/N1CC1C(F)(F)F)c1ccncc1 (stereo not drawn) | > 100 µM | > 100 µM | – | – | – | > 100 µM | – | > 100 µM | > 100 µM | > 100 µM | – | > 100 µM | TGI (HS 578T breast): > 100 µM
NC(=O)/N=C(\N)NC(=O)c1ccccc1 | > 100 µM | > 100 µM | – | – | – | > 100 µM | – | > 100 µM | > 100 µM | > 100 µM | > 100 µM | > 100 µM | TGI (786-0 renal): > 100 µM
N#CN=Nc1cc(Cl)c(N=NC#N)cc1Cl | > 100 µM | > 100 µM | > 100 µM | – | > 100 µM | – | > 100 µM | – | – | – | – | – | TGI (LXFL 529 NSCLC): > 100 µM

Source: PubChem BioAssay (NCI)
